Values after ≈ are worked out from the molar mass of the structure shown. Blank lines part the entries; values can stand above or below the compound they belong to.
Key:
[1] = Cytotoxicity in Vero cells; type: cell-based; conditions: African green monkey, cytotoxic concentration
Description: (§1) The methanol extracts of the plant parts and their fractions separated as less polar, medium polar and polar fractions using column chromatography or solvent separation/partitioning, were assessed for toxicity and subsequently for inhibition of HSV-2 in Vero cells by plaque reduction assay. These extracts and fractions were also tested for anti-HIV-1 activity and inhibition of other sexually transmitted pathogens like C. albicans, N gonorrhoea and H. ducreyi.
(§2) According to Table 3, the extracts of plant species selected from the group consisting of Polygonum glabrum, Rhus mysorensis, Terminalia paniculata, Cuscuta reflexa, Terminalia crenulata, Cassytha filiformis, Scutia myrtina, were studied for cytotoxicity in Vero cells.

[2] = tested on: Vero cells; experiment: Cytotoxicity in Vero cells; type: cell-based; conditions: cytotoxic concentration
Description: as §1, §2

[3] = tested on: HSV-2; experiment: Anti-HSV-2 plaque reduction assay in Vero cells; type: cell-based, Herpes Simplex Virus Type-2; conditions: HSV-2 plaque assay
Description: 13 wild plant species belonging to eight families Convolvulaceae (3 species), Polygonaceae (2 species), Anacardiaceae (1 species), Combretaceae (2 species), Lauraceae (1 species), Asteraceae (2 species), Zingiberaceae (1 species) and Rhamnaceae (1 species) were selected.
as §1

[4] = tested on: Haemophilus duceryi ATCC 33921; experiment: Anti-Ducreyi activity by agar disc diffusion; type: cell-based, Haemophilus ducreyi; conditions: H. duceryi ATCC 33921 (Tetracycline Sensitive); 10 μg disc, positive control
Description: A tetracycline sensitive strain of H. duceryi ([…]) was cultured on Chanchroid agar (GC agar supplemented with 2% haemoglobin, 5% FBS and 1% isovitalex and incubated at 33° C. for 72 hrs. in a candle jar with 45% moisture. The strain was identified by colony characteristics, Gram stain, growth characteristics (requirement for X and V factors) and Tween 80 hydrolysis as described earlier, and stored at −70° C. in brain heart infusion broth containing 20% glycerol.
The inoculum of each strain was prepared following the CLSI guidelines for bacteria and yeasts. The 0.5 McFarland standard inoculums (approx. 1.5×10^8 CFU/ml) of N. gonorrhoeae, H. duceryi and C. albicans were prepared from freshly grown cultures, in sterile 0.85% normal saline and mixed thoroughly. […]
The primary screening of plant extracts for activity against the three microorganisms included in the study was carried out by Kirby Baur agar disc diffusion method as described earlier. […] The discs (extract/fraction and controls) were placed on the plates previously inoculated with the respective bacterial/fungal culture, incubated as mentioned above and the zone of inhibition was recorded. […] The minimum inhibitory and minimum cidal concentrations of the extracts showing inhibition were determined using following methods.

[5] = Human alphaherpesvirus 2, Vero cells

IC50 [3, 5]: 5.6 µg/mL (≈ 24.9 µM)
Compound: Nc1nc2c(ncn2COCCO)c(=O)[nH]1 [Acyclovir]
CC50 [1]: 806 µg/mL (≈ 3580 µM)
CC80 [2]: 378 µg/mL (≈ 1680 µM)
IC80 [3, 5]: 2.81 µg/mL (≈ 12.5 µM)
TI ([3]; Therapeutic Index): 151

Compound: penicillin
zone of inhibition [4]: 36 mm
